Reference: ChEMBL document CHEMBL1201862, “PubChem BioAssay data set” (2004)
Activity calls are given as the source filed them.

Tests used:
[1] = biological target: Multidrug resistance protein CDR2 (Candida albicans (strain SC5314 / ATCC MYA-2876) (Yeast), UniProt P78595); experiment: CaCDR2 efflux pump inhibitors in yeast, dose response, S. cerevisiae AD1-8u, singleplex, Cherry Pick2 set (AID 623994); assay type: functional; conditions: read-out: EC50_MICROM
[2] = Luminescence Cell-Based Dose Response HTS to Identify Activators of Luciferase Translation or Activity in H4 […] Cells. [Related pubchem assays: 1829 (Project Summary), 1814 (Primary HTS)]; assay type: functional
[3] = Luminescence Cell-Based Dose Confirmation HTS to Identify Activators of 5'UTR Stem-Loop Driven Alpha-Synuclein mRNA Translation in H4 Neuroglioblastoma Cells. [Related pubchem assays: 1829 (Project Summary), 1814 (Primary HTS)]; assay type: functional
H4 = experiment: Luminescence Cell-Based Dose Response HTS to Identify Activators of 5'UTR Stem-Loop Driven Prion Protein mRNA Translation in H4 Neuroglioblastoma Cells. [Related pubchem assays: 1829 (Project Summary), 1814 (Primary HTS)]; assay type: functional; conditions: Homo sapiens
[4] = StAR promoter reporter inhibition counter-screen, dose response, counter-screen for LRH-1 inverse agonist project, cell-based, luminescence, luciferase reporter (AID 651969); assay type: functional
Steroidogenic factor 1 = Steroidogenic factor 1 (Homo sapiens, UniProt Q13285); experiment: Counterscreen for inverse agonists of the liver receptor homolog-1 (LRH-1; NR5A2): Luminescence-based cell-based high throughput dose response assay to identify inverse agonists of the Steroidogenic Factor 1 Nuclear Receptor (SF1; NR5A1).; assay type: functional
Sequence of Steroidogenic factor 1 (Q13285 whole entry): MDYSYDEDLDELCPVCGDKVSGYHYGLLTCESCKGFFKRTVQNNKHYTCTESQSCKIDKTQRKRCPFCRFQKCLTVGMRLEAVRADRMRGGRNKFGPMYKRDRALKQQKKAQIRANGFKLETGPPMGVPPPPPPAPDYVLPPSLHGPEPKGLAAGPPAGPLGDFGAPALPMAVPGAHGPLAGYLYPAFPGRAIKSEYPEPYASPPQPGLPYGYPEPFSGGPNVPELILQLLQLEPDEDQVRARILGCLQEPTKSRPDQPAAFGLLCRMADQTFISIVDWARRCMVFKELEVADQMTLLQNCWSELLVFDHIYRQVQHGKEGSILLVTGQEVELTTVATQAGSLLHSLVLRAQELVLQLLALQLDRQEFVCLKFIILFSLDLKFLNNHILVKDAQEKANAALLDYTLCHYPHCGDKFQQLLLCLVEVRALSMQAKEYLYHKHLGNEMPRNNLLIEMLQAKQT

[5] = biological target: Nuclear receptor subfamily 5 group A member 2 (Homo sapiens, UniProt O00482); assay type: functional, cell-based;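 further: HEK293T cells transfected with LRH-1 and a StAR promoter luciferase reporter; potency for inhibitors that lower LRH-1 driven reporter light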
Sequence of Nuclear receptor subfamily 5 group A member 2 (O00482 whole entry): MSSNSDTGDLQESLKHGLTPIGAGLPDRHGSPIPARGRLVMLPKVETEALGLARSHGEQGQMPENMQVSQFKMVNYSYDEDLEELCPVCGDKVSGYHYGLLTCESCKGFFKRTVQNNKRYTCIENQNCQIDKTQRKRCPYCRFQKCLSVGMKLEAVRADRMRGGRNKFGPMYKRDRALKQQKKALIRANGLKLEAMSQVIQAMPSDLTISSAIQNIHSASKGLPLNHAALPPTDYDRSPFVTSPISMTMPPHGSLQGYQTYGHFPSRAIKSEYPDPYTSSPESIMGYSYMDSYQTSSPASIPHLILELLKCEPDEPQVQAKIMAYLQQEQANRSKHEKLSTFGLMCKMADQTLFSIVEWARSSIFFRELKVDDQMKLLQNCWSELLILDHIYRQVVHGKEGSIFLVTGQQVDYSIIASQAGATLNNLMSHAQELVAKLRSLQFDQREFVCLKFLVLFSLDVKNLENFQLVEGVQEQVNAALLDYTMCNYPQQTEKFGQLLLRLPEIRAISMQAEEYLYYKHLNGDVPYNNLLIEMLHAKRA

Exodeoxyribonuclease V = Exodeoxyribonuclease V (Escherichia coli (strain K12), UniProt P04993+P07648+P08394); experiment: E. coli RecBCD inhibitors, dose response, counter-screen for AddAB inhibitor project, absorbance, V66 E. coli, mutant T4 phage (AID 492957); assay type: functional, cell-based, Escherichia coli str. K-12 substr. MG1655
Sequence of Exodeoxyribonuclease V (P04993 whole entry): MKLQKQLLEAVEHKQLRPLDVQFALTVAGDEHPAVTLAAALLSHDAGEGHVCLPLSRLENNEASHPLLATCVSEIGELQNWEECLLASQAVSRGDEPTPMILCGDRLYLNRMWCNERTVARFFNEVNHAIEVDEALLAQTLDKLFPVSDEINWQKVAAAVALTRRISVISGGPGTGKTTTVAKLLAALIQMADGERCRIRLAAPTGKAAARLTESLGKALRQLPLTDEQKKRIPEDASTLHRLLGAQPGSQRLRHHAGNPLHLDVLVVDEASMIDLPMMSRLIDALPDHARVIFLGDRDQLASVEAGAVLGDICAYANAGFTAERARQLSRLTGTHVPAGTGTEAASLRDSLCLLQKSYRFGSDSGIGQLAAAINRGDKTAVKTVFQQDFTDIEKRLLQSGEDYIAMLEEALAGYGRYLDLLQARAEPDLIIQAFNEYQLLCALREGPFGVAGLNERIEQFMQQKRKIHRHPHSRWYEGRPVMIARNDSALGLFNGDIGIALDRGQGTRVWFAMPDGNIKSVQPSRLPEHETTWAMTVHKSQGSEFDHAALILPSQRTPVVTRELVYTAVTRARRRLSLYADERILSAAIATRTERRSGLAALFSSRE
Sequence of Exodeoxyribonuclease V (P07648 whole entry): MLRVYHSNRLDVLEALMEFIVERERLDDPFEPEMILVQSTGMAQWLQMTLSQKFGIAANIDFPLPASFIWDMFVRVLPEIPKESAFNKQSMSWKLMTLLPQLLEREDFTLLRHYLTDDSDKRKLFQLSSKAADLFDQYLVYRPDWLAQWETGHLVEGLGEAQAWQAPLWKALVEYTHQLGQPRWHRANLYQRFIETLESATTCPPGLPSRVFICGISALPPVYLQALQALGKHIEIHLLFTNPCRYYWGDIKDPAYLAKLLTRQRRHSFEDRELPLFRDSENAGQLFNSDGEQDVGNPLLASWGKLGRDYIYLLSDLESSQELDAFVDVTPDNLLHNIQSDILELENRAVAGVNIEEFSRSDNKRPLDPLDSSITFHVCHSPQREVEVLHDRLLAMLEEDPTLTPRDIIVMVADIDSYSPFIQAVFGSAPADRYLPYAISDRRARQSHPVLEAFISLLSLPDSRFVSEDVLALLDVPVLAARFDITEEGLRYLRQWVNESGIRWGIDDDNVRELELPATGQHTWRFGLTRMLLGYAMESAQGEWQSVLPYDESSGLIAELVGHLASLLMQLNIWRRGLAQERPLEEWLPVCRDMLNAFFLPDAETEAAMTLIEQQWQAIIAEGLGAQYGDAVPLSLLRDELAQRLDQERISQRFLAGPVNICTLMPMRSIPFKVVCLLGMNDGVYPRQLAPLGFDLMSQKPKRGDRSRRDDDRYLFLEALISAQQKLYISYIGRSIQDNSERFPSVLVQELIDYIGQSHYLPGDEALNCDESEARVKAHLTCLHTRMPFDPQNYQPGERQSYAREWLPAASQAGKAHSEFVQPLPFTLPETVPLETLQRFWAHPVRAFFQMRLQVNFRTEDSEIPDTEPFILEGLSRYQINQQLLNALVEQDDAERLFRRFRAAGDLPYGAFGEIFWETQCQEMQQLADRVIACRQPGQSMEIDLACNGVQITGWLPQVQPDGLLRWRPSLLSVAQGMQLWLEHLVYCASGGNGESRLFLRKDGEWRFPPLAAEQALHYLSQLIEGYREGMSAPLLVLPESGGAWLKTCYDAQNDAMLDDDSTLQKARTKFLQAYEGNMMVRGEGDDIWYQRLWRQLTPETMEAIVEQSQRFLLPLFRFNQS
Sequence of Exodeoxyribonuclease V (P08394 whole entry): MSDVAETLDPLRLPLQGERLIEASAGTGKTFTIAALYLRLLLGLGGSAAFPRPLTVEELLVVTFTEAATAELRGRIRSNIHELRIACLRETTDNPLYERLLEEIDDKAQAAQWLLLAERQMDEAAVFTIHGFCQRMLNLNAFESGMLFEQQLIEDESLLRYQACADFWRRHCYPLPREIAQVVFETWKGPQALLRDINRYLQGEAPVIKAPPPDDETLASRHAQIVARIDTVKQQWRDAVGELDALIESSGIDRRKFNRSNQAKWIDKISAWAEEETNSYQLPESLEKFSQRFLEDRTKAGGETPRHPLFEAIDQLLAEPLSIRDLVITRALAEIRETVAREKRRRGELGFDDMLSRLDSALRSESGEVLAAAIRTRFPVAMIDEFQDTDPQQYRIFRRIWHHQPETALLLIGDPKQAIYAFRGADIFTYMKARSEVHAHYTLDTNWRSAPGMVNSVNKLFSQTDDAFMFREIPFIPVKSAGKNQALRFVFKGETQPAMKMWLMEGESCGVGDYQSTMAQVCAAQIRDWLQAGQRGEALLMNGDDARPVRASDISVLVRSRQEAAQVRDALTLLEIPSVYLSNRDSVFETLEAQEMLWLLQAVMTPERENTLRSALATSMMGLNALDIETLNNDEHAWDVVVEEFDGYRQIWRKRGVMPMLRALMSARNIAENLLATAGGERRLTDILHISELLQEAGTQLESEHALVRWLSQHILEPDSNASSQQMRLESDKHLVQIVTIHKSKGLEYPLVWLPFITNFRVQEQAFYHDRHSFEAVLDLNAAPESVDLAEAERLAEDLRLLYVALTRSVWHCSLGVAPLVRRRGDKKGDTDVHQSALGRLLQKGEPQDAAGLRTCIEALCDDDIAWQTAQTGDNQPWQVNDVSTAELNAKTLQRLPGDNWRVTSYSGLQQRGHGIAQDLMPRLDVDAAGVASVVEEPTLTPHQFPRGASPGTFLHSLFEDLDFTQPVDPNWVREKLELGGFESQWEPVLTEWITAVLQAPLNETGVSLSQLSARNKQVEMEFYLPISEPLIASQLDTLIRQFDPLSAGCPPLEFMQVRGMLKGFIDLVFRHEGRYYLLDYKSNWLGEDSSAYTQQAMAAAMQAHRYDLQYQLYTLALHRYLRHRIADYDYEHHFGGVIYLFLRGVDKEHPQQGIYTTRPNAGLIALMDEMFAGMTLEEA

Protein Wnt-3a = Protein Wnt-3a (Mus musculus, UniProt P27467); experiment: Wnt3a-driven reporter signaling inhibition, dose response, selectivity assay for Gli-SUFU antagonist project, Wnt-LIGHT cells, luminescence (AID 651570); assay type: functional; conditions: read-out: IC50_Mean;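 further: Wnt-LIGHT reporter cells stimulated with conditioned medium from Wnt3a-producing cells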
Sequence of Protein Wnt-3a (P27467 whole entry): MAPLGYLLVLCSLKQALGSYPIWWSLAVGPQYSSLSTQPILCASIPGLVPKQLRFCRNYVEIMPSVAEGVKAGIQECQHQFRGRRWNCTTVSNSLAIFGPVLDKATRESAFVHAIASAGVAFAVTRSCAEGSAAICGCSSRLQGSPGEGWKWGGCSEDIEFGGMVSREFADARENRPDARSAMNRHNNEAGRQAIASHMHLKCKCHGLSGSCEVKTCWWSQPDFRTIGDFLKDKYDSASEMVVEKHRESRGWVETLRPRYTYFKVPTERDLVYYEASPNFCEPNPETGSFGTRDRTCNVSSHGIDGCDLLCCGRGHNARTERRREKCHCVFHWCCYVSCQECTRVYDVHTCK

[6] = Counterscreen for AddAB inhibitors: absorbance-based bacterial cell-based high throughput dose response assay for inhibitors of bacterial viability. [Related pubchem assays (depositor defined):AID435030, AID449728, AID449731, AID488942, AID488955, AID488956]; assay type: functional
[7] = cytotoxicity in HEK-293T cells, dose response, cytotoxicity control for TCR NF-kB inhibitor project, luminescence, T-cell screen hits (AID 489026); assay type: functional, cell-based;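 further: cells exposed to compound about 14 hours before the viability readout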
INS1 = experiment: beta cell apoptosis inhibitors, cytokine rescue, dose response, luminescence, retest (AID 449756); assay type: functional, cell-based; conditions: Rattus norvegicus;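 further: cell death triggered by IL-1 beta plus TNF-alpha plus IFN-gamma mixture; protective hits raise ATP signal compared with cytokine alone wells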
[8] = biological target: T1, Apoptotic protease-activating factor 1 (Homo sapiens, UniProt O14727); experiment: SAR analysis of small molecule Activators of Apaf-1 in a Fluorescent assay.; assay type: functional; conditions: read-out: EC50_Mean;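 further: caspase-3 cleavage of fluorogenic Rh110 DEVD substrate downstream of apoptosome activation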
T1 sequence (O14727 whole entry): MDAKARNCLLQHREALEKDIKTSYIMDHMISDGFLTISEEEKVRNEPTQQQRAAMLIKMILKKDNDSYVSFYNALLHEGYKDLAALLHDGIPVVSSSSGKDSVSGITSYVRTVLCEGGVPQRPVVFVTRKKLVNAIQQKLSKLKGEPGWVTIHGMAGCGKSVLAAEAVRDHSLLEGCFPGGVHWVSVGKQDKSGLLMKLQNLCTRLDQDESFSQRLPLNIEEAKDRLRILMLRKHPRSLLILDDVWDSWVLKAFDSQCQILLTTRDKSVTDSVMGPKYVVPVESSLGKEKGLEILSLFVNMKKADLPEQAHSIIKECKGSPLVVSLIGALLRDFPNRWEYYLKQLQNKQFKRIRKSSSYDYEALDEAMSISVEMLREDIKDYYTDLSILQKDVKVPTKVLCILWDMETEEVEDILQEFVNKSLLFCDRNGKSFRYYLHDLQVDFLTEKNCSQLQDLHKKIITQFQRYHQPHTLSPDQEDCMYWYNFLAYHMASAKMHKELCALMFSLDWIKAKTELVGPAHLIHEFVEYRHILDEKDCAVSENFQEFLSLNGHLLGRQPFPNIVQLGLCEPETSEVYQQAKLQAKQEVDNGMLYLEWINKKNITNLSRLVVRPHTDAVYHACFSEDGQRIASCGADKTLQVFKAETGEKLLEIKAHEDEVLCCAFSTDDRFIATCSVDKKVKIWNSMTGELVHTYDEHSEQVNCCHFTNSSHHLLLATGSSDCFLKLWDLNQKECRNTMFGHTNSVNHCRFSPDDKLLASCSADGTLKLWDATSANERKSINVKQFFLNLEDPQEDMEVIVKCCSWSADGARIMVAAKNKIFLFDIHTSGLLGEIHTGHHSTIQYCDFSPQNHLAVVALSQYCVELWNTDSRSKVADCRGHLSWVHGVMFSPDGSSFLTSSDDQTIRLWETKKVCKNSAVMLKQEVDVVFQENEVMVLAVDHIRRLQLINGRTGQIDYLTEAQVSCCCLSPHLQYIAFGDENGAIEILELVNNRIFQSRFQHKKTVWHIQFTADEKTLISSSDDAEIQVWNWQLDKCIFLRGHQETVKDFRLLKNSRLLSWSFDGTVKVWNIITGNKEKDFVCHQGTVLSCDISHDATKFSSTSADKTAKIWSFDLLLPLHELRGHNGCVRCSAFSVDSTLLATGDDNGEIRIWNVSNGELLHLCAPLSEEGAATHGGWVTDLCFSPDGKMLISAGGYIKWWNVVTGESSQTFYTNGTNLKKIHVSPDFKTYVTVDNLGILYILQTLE

Beta-lactamase [9] = biological target: Beta-lactamase (Salmonella choleraesuis (strain SC-B67), UniProt Q5J463)
Beta-lactamase [10] = biological target: Beta-lactamase (Pseudomonas aeruginosa, UniProt Q79MP6);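 further: biochemical dose-response test of metallo-beta-lactamase enzyme inhibition, read out by epi-absorbance; purified recombinant IMP-1 metallo-beta-lactamase with nitrocefin as substrate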
Sequence of Beta-lactamase (Pseudomonas aeruginosa, UniProt Q79MP6) (Q79MP6 whole entry): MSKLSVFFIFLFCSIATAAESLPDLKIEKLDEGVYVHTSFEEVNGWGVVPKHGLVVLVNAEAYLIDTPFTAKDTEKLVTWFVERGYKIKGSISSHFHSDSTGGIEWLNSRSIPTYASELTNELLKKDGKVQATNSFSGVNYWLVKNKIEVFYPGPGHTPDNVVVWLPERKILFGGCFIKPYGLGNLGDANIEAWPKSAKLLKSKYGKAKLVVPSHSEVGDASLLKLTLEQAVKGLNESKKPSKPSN

Beta Lactamase = Beta Lactamase (Pseudomonas aeruginosa, UniProt Q932Y6);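 further: confirmatory high-throughput screen measuring VIM-2 metallo-beta-lactamase inhibition by epi-absorbance in dose response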
Sequence of Beta Lactamase (Q932Y6 whole entry): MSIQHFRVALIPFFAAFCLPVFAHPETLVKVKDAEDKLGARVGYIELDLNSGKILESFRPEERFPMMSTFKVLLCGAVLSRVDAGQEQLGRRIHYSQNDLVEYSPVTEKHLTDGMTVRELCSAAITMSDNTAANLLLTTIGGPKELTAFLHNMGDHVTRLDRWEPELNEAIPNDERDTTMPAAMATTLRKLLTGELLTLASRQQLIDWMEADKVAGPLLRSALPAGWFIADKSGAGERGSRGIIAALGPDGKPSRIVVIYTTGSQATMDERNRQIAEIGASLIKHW

Question: For `O=C(Nc1ccccc1)C1=C[C@H](c2ccccc2)C[C@H](OCCCCO)O1`, which EC50 [1] is on record?
Answer: 27.7 µM (active)

Question: And the EC50 [2]?
Answer: 9.7 µM (active)

Question: What about the EC50 [3] of the same compound?
Answer: 11.6 µM (active)

Question: What about the EC50 (H4) of the same compound?
Answer: 22 µM (active)

Question: Which IC50 [4] does the source give for `CC1(C(=O)NCc2ccc3c(c2)OCO3)CCN1C(=O)Cc1ccc(Cl)cc1Cl` (stereo unspecified) here?
Answer: 35.9 µM (inactive)

Question: And the IC50 (Steroidogenic factor 1)?
Answer: 3.32 µM (active)

Question: And the IC50 [5]?
Answer: 7.36 µM (active)

Question: Which results are given for `CCOC(=O)c1ccc(NC(=O)Cn2cnc3cc(C)c(C)cc32)cc1`?
Answer: IC50 (Exodeoxyribonuclease V): > 119 µM (inactive); IC50 (Protein Wnt-3a): 0.931 µM (active); IC50 [6]: > 119 µM (inactive); IC50 [7]: > 80 µM (inactive); AC50 (INS1): 4.42 µM (active)

Question: Which EC50 [8] does the source give for `Cc1nn(Cc2ccccc2)c(C)c1CCC(=O)O` here?
Answer: > 100 µM (inactive)

Question: With `C/C(=N\O)c1ccc2c3c([nH]c2c1)CCCC3` as the compound, how does the IC50 (Beta-lactamase [9]) read?
Answer: > 59.6 µM (inactive)

Question: What about the IC50 (Beta-lactamase [10]) of the same compound?
Answer: > 59.6 µM (inactive)

Question: What about the IC50 (Beta Lactamase) of the same compound?
Answer: > 59.6 µM (inactive)
